# Molecular target: purified human MMP-12 enzyme (Homo sapiens, UniProt P39900)
# Assay: MMP-12 FRET assay
# Assay type: biochemical
# Conditions: substrate 20 μM, room temperature
# Procedure: Compounds according to the present teachings were tested in an MMP-12 FRET assay as follows. To each well of black polystyrene 96-well plate was added assay buffer (50 mM HEPES (pH 7.4), 100 mM NaCl, 5 mM CaCl2 and 0.005% Brij-35 (Polyoxyethyleneglycol dodecyl ether, Pierce cat#20150), purified human MMP-12 enzyme, and varied concentrations of test compounds (prepared by serial dilution of a stock solution in 100% DMSO). The plates were incubated at room temperature for 30 minutes. The enzymatic reactions were initiated by addition of a substrate, MCA-Pro-Leu-Gly-Leu-Dpa(DNP)-Ala-Arg, containing a fluorescent group (7-methoxycoumarin, MCA) and a 2,4-dinitrophenyl group (DNP), to a final concentration of 20 μM. The final DMSO concentration in the assay was 10%. The reaction was monitored for 30 minutes at room temperature and the initial rate of the cleavage reaction was determined using a fluorescence plate reader (λex: 325 nm, λem: 395 nm). Plots of the inhibitor concentration vs. the initial cleavage rate were fit to the following equation: y=Vmax*(1−(x^n/(K^n+x^n))), whereby x=inhibitor concentration, y=initial rate, Vmax=initial rate in the absence of inhibitor, n=slope factor, and K=IC50 for the inhibition curve.
# Sequence of purified human MMP-12 enzyme (P39900 106-470): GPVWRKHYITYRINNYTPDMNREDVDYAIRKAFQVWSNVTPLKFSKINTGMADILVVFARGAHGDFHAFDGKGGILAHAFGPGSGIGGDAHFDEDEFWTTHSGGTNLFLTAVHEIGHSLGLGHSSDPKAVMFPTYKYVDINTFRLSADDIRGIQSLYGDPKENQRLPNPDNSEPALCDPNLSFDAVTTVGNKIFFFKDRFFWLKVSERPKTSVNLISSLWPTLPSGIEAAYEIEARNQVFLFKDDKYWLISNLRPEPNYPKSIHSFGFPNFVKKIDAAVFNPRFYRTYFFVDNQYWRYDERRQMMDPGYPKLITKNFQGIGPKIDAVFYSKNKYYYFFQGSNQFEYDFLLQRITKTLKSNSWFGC
row,Molecule,IC50 [nM]
1,"CC(C)[C@H](NS(=O)(=O)c1ccc2c(c1)oc1ccc(-c3cnn(CCN4CCOCC4)c3)cc12)C(=O)O [Compound 158, (S)-3-methyl-2-(8-(1-(2-morpholinoethyl)-1H-pyrazol-4-yl)dibenzo[b,d]furan-3-sulfonamido)butanoic acid]",223
2,"CC(C)[C@H](NS(=O)(=O)c1ccc2c(c1)oc1ccc(-c3sc(Cl)cc3Cl)cc12)C(=O)O [Compound 75, (S)-2-(8-(3,5-dichlorothiophen-2-yl)dibenzo[b,d]furan-3-sulfonamido)-3-methylbutanoic acid]",< 1.5
3,"CCCn1cc(-c2ccc3sc4cc(S(=O)(=O)N[C@H](C(=O)O)C(C)C)ccc4c3c2)cn1 [Compound 42, (S)-3-methyl-2-(8-(1-propyl-1H-pyrazol-4-yl)dibenzo[b,d]thiophene-3-sulfonamido)butanoic acid]",7.8
4,"CC(C)[C@H](NS(=O)(=O)c1ccc2c(c1)oc1ccc(-c3nc4ccccc4o3)cc12)C(=O)O [Compound 194, (S)-2-(8-(benzo[d]oxazol-2-yl)dibenzo[b,d]furan-3-sulfonamido)-3-methylbutanoic acid]",4.6
5,"CC(C)[C@@H](NS(=O)(=O)c1ccc2oc3cc(-c4cnn(Cc5ccccc5)c4)ccc3c2c1)C(=O)O [Compound 175, (R)-2-(7-(1-benzyl-1H-pyrazol-4-yl)dibenzo[b,d]furan-2-sulfonamido)-3-methylbutanoic acid]",12
6,"CC(C)[C@H](NS(=O)(=O)c1ccc2c(c1)oc1ccc(-c3nc4c(F)cccc4s3)cc12)C(=O)O [Compound 218, (S)-2-(8-(4-fluorobenzo[d]thiazol-2-yl)dibenzo[b,d]furan-3-sulfonamido)-3-methylbutanoic acid]",< 1.5
7,"CC(C)[C@H](NS(=O)(=O)c1ccc2c(c1)oc1ccc(-c3ccc(C(C)(C)C)o3)cc12)C(=O)O [Compound 198, (S)-2-(8-(5-tert-butylfuran-2-yl)dibenzo[b,d]furan-3-sulfonamido)-3-methylbutanoic acid]",5.6
8,"CCc1ccc(-c2ccc3c(c2)oc2ccc(S(=O)(=O)N[C@H](C(=O)O)C(C)C)cc23)s1 [Compound 242, (S)-2-(7-(5-ethylthiophen-2-yl)dibenzo[b,d]furan-2-sulfonamido)-3-methylbutanoic acid]",8.4
9,"Cc1nc(-c2ccc(C(F)(F)F)cc2)sc1-c1ccc2c(c1)oc1ccc(S(=O)(=O)N[C@@H](C(=O)O)C(C)C)cc12 [Compound 177, (R)-3-methyl-2-(7-(4-methyl-2-(4-(trifluoromethyl)phenyl)thiazol-5-yl)dibenzo[b,d]furan-2-sulfonamido)butanoic acid]",740
10,"CC(C)Cc1nc(-c2ccc3c(c2)oc2ccc(S(=O)(=O)N[C@@H](C(=O)O)C(C)C)cc23)no1 [Compound 149, (R)-2-(7-(5-isobutyl-1,2,4-oxadiazol-3-yl)dibenzo[b,d]furan-2-sulfonamido)-3-methylbutanoic acid]",5.3
11,"COc1ccc2sc(-c3ccc4oc5cc(S(=O)(=O)N[C@H](C(=O)O)C(C)C)ccc5c4c3)nc2c1 [Compound 225, (S)-2-(8-(5-methoxybenzo[d]thiazol-2-yl)dibenzo[b,d]furan-3-sulfonamido)-3-methylbutanoic acid]",< 1.5
12,"CC(C)[C@@H](NS(=O)(=O)c1ccc2oc3cc(-c4ccoc4)ccc3c2c1)C(=O)O [Compound 96, (R)-2-(7-(furan-3-yl)dibenzo[b,d]furan-2-sulfonamido)-3-methylbutanoic acid]",13
13,"CC(C)[C@@H](NS(=O)(=O)c1ccc2oc3cc(-c4noc(CC(C)(C)C)n4)ccc3c2c1)C(=O)O [Compound 189, (R)-3-methyl-2-(7-(5-neopentyl-1,2,4-oxadiazol-3-yl)dibenzo[b,d]furan-2-sulfonamido)butanoic acid]",4.5
14,"CC(C)[C@H](NS(=O)(=O)c1ccc2c(c1)oc1ccc(-c3cc(Cl)oc3Cl)cc12)C(=O)O [Compound 95, (S)-2-(8-(2,5-dichlorofuran-3-yl)dibenzo[b,d]furan-3-sulfonamido)-3-methylbutanoic acid]",< 1.5
15,"Cc1ccc(-c2ccc3c(c2)oc2cc(S(=O)(=O)N[C@H](C(=O)O)C(C)C)ccc23)o1 [Compound 135, (S)-3-methyl-2-(7-(5-methylfuran-2-yl)dibenzo[b,d]furan-3-sulfonamido)butanoic acid]",< 1.5
16,"CONC(=N)c1ccc2oc3cc(S(=O)(=O)N[C@H](C(=O)O)C(C)C)ccc3c2c1 [Compound 108, (S)-2-(8-(N-methoxycarbamimidoyl)dibenzo[b,d]furan-3-sulfonamido)-3-methylbutanoic acid]",2
17,CC(C)[C@H](NS(=O)(=O)c1ccc2c(c1)oc1ccc(-c3ccc4oc5cc(S(=O)(=O)N[C@H](C(=O)O)C(C)C)ccc5c4c3)cc12)C(=O)O [Compound 125],17
18,"CC(C)[C@H](NS(=O)(=O)c1ccc2c(c1)oc1cc(-c3nccs3)ccc12)C(=O)O [Compound 137, (S)-3-methyl-2-(7-(thiazol-2-yl)dibenzo[b,d]furan-3-sulfonamido)butanoic acid]",11
19,"CC(C)[C@H](NS(=O)(=O)c1ccc2c(c1)oc1ccc(-c3ccc(Cl)s3)cc12)C(=O)O [Compound 74, (S)-2-(8-(5-chlorothiophen-2-yl)dibenzo[b,d]furan-3-sulfonamido)-3-methylbutanoic acid]",< 1.5

# Now from value to molecule:
row,IC50 [nM],Molecule
1,21,"CC(C)(C)c1nc(-c2ccc3oc4cc(S(=O)(=O)N[C@H](C(=O)O)c5ccccc5)ccc4c3c2)no1 [Compound 254, (S)-2-(8-(5-tert-butyl-1,2,4-oxadiazol-3-yl)dibenzo[b,d]furan-3-sulfonamido)-2-phenylacetic acid]"
2,15,CC(C)(C)c1nc(-c2ccc3c(c2)oc2ccc(S(=O)(=O)N[C@@H](Cc4c[nH]c5ccccc45)C(=O)O)cc23)no1 [Compound 280]
3,9.1,"CC(C)[C@@H](NS(=O)(=O)c1ccc2oc3cc(-c4ccc(-c5ccccc5)s4)ccc3c2c1)C(=O)O [Compound 289, (R)-3-methyl-2-(7-(5-phenylthiophen-2-yl)dibenzo[b,d]furan-2-sulfonamido)butanoic acid]"
4,4.1,"CC(C)(C)c1nc(-c2ccc3c(c2)oc2ccc(S(=O)(=O)N[C@H](Cc4ccccc4)C(=O)O)cc23)no1 [Compound 275, (R)-2-(7-(5-tert-butyl-1,2,4-oxadiazol-3-yl)dibenzo[b,d]furan-2-sulfonamido)-3-phenylpropanoic acid]"
5,< 1.5,"CC(C)[C@H](NS(=O)(=O)c1ccc2c(c1)sc1cc(-c3ccccc3)ccc12)C(=O)O [Compound 313, (S)-3-methyl-2-(7-phenyldibenzo[b,d]thiophene-3-sulfonamido)butanoic acid]"
6,< 1.5,"C#Cc1ccc2oc3cc(S(=O)(=O)N[C@H](C(=O)O)C(C)C)ccc3c2c1 [Compound 303, (S)-2-(8-ethynyldibenzo[b,d]furan-3-sulfonamido)-3-methylbutanoic acid]"
7,3.8,"(R)-2-(7-(5-ethyl-1,2,4-oxadiazol-3-yl)dibenzo[b,d]furan-2-sulfonamido)-3-methylbutanoic acid [Compound 140]"
8,3.7,"CC(C)[C@H](NS(=O)(=O)c1ccc2c(c1)oc1ccc(-c3noc(-c4ccc(C(F)(F)F)cc4)n3)cc12)C(=O)O [Compound 271, (S)-3-methyl-2-(8-(5-(4-(trifluoromethyl)phenyl)-1,2,4-oxadiazol-3-yl)dibenzo[b,d]furan-3-sulfonamido)butanoic acid]"

# From patent US20100227859A1, “TRICYCLIC COMPOUNDS AS MATRIX METALLOPROTEINASE INHIBITORS” (priority 2007, published 2010)
